According to patent US20220226508A1, “METHODS AND COMPOSITIONS FOR TREATING EPILEPSY” (THE REGENTS OF THE UNIVERSITY OF CALIFORNIA, priority 2019, published 2022):
“Also recorded” adds a separate entry of the source. Where two headings read alike, the source gives them in different places.

How the values were obtained:
[1] = tested on: scn1lab mutant zebrafish; experiment: Locomotion assay of high-velocity seizure-like swim behavior; type: in vivo, zebrafish (Danio rerio); conditions: for effect on seizure-like swim behavior (change in mean velocity): commercial 5-HT2BR/dopamine agonists, three concentrations; for effect on seizure-like swim behavior (change in mean velocity) / suppression of seizure-like swim behavior (change in mean velocity): 30 and 90 min exposure, threshold ≥40%; for suppression of seizure-like swim behavior (change in mean velocity): independently resynthesized compounds retested at 10, 50, 100 and 250 μM; for suppression of seizure-like swim behavior (change in mean swim velocity): initial library screen at 100 μM and 250 μM, 5 dpf larvae, threshold reduction ≥40%
Description: Zebrafish maintenance. Zebrafish were raised under standard laboratory conditions in accordance with requirements outlined in the Guide for the Care and Use of Animals (ebrary Inc., 2011) and experiments were approved by the Institutional Animal Care and Use Committee (protocol #AN108659-03). Embryos were obtained by natural spawning of scn1lab (didy^s552) heterozygous animals that had been outcrossed to TL strain. Homozygous scn1lab mutants (n=2500) have dispersed melanosomes and appear visibly darker by 3 dpf compared to WT larvae.
Seizure monitoring. At 5 dpf individual zebrafish larvae were placed into a single well of a clear flat-bottomed 96-well microplate containing embryo media. Larvae were selected randomly as sex determination is not possible at this stage of development. All drug screening experiments were conducted in an unbiased manner by investigators blinded to the test compounds and all files coded for post hoc analysis. Microplates were placed inside the DanioVision and acclimated for 20 min at room temperature. Locomotion plots were obtained for each well at a recording epoch of 10 min using EthoVision XT software (DanioVision, Noldus Information Technology). Seizure scoring was performed using the following three-stage scale established for pentylenetetrazole-induced seizures: Stage 0, no or very little swim activity; Stage I, increased, brief bouts of swim activity; Stage II, rapid “whirlpool-like” circling swim behavior; and Stage III, paroxysmal whole-body clonus-like convulsions, and a brief loss of posture. WT fish are typically scored at Stage 0 or I. Plots were analyzed for distance travelled (in millimeters) and mean velocity (in millimeters per second). After 90 mins of drug exposure larvae were examined for toxic side-effects. Compounds that decreased or stopped the larva heartbeat, or reduced or eliminated the escape response when touched, were considered toxic.
Statistics. Data are presented as the mean±standard error of the mean (SEM), unless otherwise stated. For behavior analysis, the threshold for a change in mean swim velocity ≥40% (>1.5×SD of 250 control treated scn1lab) is considered significant. For comparison between more than two groups one-way ANOVA analysis was used. […] Differences considered statistically significant are indicated with asterisks (*P<0.05; **P<0.01).

[2] = target: T1, human 5-HT2BR (Homo sapiens, UniProt P41595)
T1 construct: expressed in transfected cells
T1 sequence (P41595 whole entry): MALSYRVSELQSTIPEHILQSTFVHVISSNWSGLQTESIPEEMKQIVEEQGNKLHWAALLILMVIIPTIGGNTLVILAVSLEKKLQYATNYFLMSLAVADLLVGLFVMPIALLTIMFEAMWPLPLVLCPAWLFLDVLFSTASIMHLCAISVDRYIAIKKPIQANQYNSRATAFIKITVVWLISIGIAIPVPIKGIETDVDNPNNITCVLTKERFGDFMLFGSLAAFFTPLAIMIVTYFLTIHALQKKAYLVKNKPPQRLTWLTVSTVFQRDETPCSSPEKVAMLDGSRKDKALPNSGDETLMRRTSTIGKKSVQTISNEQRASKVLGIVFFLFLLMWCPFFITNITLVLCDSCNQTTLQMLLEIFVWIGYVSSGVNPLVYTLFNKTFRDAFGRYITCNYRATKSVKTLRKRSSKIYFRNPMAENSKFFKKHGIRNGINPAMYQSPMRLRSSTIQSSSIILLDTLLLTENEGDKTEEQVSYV

[3] = target: T2, human 5-HT2AR (Homo sapiens, UniProt P28223); conditions: read-out: binding affinity (Ki) 5-HT2A / 5-HT2AR, cited from earlier work
T2 construct: expressed in transfected cells
T2 sequence (P28223 whole entry): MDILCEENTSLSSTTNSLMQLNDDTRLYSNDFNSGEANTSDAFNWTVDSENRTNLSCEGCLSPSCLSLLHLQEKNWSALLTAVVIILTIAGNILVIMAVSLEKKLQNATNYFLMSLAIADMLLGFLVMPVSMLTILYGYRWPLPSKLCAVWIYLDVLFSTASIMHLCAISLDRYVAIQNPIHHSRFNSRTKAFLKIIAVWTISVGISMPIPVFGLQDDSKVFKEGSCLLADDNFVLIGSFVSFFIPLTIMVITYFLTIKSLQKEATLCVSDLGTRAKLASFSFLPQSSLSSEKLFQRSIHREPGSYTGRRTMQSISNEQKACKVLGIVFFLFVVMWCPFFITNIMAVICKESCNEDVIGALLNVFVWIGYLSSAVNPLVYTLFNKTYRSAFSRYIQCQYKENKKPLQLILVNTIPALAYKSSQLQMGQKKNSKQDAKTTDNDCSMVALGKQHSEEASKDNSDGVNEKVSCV

[4] = target: T3, human 5-HT2CR (Homo sapiens, UniProt P28335)
T3 construct: expressed in transfected cells
T3 sequence (P28335 33-458): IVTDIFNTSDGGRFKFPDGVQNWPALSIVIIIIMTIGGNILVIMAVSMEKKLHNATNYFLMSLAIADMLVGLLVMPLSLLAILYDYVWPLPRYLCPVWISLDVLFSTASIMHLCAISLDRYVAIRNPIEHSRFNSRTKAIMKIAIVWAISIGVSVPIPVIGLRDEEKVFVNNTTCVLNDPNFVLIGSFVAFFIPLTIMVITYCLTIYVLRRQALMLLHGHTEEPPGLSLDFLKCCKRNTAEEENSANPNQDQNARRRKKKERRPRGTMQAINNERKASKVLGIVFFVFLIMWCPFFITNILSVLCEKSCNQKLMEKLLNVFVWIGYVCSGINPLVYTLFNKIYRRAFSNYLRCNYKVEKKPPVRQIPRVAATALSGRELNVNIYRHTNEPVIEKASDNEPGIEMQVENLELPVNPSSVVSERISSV

[5] = target: T3, human 5-HT2CR; experiment: Radioligand binding assay (NIMH PDSP), 5-HT2CR
Protocol: (§1) Receptor Binding Assays. In vitro binding assay and Ki data were performed by the US National Institute of Mental Health Psychoactive Drug Screening Program (NIMH PDSP). Drugs were screened against recombinant, stably expressed human 5-HT2AR, 5-HT2BR, 5-HT2CR and H1. For specific binding assays please refer to detailed procedures at https://pdspdb.unc.edu/pdspWeb/ (Besnard, J. et al., Nature, 492, 215-220, 2012).

[6] = target: T2, human 5-HT2AR; experiment: biochemical; type: binding
Protocol: as §1

[7] = target: T1, human 5-HT2BR; experiment: biochemical; type: binding; conditions: for Ki: read-out: binding affinity (Ki) 5-HT2BR; for specificity / selectivity for 5-HT2BR over other 5-HT2R subtypes: radioligand binding
Protocol: as §1

[8] = target: human H1 receptor (Homo sapiens, UniProt P35367); experiment: Radioligand binding assay (NIMH PDSP), H1; design: expressed in transfected cells; conditions: read-out: binding affinity (Ki) H1
Chain of human H1 receptor (P35367 whole entry): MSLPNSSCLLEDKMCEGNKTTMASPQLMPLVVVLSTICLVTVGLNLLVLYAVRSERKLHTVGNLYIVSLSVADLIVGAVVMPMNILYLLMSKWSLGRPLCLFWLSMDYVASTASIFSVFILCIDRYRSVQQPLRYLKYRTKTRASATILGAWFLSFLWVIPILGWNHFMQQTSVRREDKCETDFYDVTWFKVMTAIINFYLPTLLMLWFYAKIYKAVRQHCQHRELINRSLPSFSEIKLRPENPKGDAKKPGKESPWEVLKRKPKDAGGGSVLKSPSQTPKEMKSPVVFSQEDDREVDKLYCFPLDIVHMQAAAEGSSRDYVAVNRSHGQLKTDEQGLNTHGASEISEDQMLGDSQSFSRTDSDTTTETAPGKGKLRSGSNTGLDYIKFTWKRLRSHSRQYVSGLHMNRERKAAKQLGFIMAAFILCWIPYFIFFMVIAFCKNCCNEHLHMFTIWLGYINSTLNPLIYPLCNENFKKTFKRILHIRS
Protocol: as §1

[9] = tested on: scn1lab mutant zebrafish; experiment: Local field potential (LFP) electrophysiology of electrographic seizure events; type: in vivo, zebrafish (Danio rerio); conditions: 100 μM; 10 min LFP recording, 5 dpf larvae
Protocol: For electrophysiology studies, zebrafish larvae were anesthetized with cold and immobilized in 1.2% agarose; local field potential (LFP) recordings were obtained from forebrain or optic tectum structures using a single-electrode approach, as previously described (Baraban, S. C. et al., Neuroscience, 131, 759-768, 2005). Agarose-embedded LFP recording sessions of 10 min were obtained at 1 kHz. Epileptiform events were identified post hoc and defined as multi-spike or poly-spike upward or downward membrane deflections greater than 3× baseline noise level and 150-250 ms in duration (interictal-like) or greater than 5× baseline noise, multi-spike and >500 ms in duration (ictal-like); both events were counted using threshold detection settings in Clampfit (Molecular Devices; Sunnyvale, Calif.). During electrophysiology experiments larvae were continuously monitored for blood flow and heart rate using an Axiocam digital camera at video frame rate.
Monitoring electrographic brain activity to confirm seizure suppression is an essential assay to eliminate false positives from behavioral testing (Griffin, A. et al., Frontiers in Pharmacology, 9, 2018). By placing a microelectrode into a visually identified brain region of an agar-immobilized zebrafish larval, stable local field potential (LFP) recordings can be monitored for several hours (Baraban, S. C. et al., Nat Commun, 4, 2410, 2013). At 5 dpf LFP recordings of scn1Lab zebrafish larvae show an average of 250 abnormal electrographic seizure events during a 10 min recording epoch.

[10] = known drugs and commercial compounds; read-out: binding affinity (Ki) 5-HT2B / 5-HT2BR; cited from earlier work
[11] = known drugs and commercial compounds
[12] = known drugs and commercial compounds; read-out: binding affinity (Ki) 5-HT2C / 5-HT2CR; cited from earlier work
[13] = clemizole analogs, recombinant human receptor, read-out: binding affinity (Ki) 5-HT2CR
[14] = read-out: binding affinity (Ki) 5-HT2AR
[15] = clemizole analogs, recombinant human receptor
[16] = read-out: binding affinity (Ki) 5-HT2CR
[17] = clemizole analogs, recombinant human receptor, read-out: binding affinity (Ki) 5-HT2AR

CC(N)Cc1c[nH]c2ccc(OCc3cccs3)cc12 (stereo not shown) [BW-723C86, reference compound]
effect on seizure-like swim behavior (change in mean velocity) [1]: showed a decrease in seizure-like swim behavior, but also failed to reach our significance threshold

Clc1cccc(COc2cncc(N3CCNCC3)n2)c1 [CP-809,101]
Ki [2, 10]: 6 nM | Ki [3, 11]: 1.6 nM | Ki [4, 12]: 64 nM | effect on seizure-like swim behavior (change in mean velocity) [1]: biphasic response

Clc1ccc(Cn2c(CC3CCCC3)nc3ccccc32)cc1 [Compound 1, 1-[(4-Chlorophenyl)methyl]-2-(cyclopentylmethyl)-1H-benzimidazole]
Ki [5, 13]: 2730 nM | Ki [6, 14]: > 10000 nM | Ki [7, 15]: 501 nM

c1ccc(Cn2c(CN3CCCC3)nc3ccccc32)cc1 [Compound 3]
Ki [5, 16]: 292 nM | Ki [8]: 4.8 nM | Ki [6, 14]: 327 nM | Ki [7]: 83 nM

c1ccc2c(c1)nc(CN1CCCC1)n2CC1CCCCC1 [Compound 4, 1-(Cyclohexylmethyl)-2-[(pyrrolidin-1-yl)methyl]-1H-benzimidazole]
Ki [5]: > 10000 nM | Ki [8, 15]: 153 nM | Ki [6]: > 10000 nM | Ki [7, 15]: 612 nM | specificity / selectivity for 5-HT2BR over other 5-HT2R subtypes [7]: specificity for 5-HT2BR over other 5-HT2R subtypes; also recorded: significant preference for 5-HT2BR | frequency of electrographic seizure (epileptiform) events [9]: significant changes in the frequency of events; also recorded: significant suppression of electrographic seizure activity | suppression of seizure-like swim behavior (change in mean velocity) [1]: reduced the high-velocity seizure-like swim behavior | suppression of seizure-like swim behavior (change in mean swim velocity) [1]: effective in suppressing

CCCn1c(CN2CCCC2)nc2ccccc21 [Compound 5]
Ki [5, 16]: > 10000 nM | Ki [8]: 362 nM | Ki [6, 14]: > 10000 nM | specificity / selectivity for 5-HT2BR over other 5-HT2R subtypes [7]: specific binding for 5HT2BR; also recorded: selectivity for 5-HT2BR | Ki [7]: 219 nM | suppression of seizure-like swim behavior (change in mean velocity) [1]: no significant effect on the high-speed seizure-like behavior; also recorded: no significant effect on the swim behavior | suppression of seizure-like swim behavior (change in mean swim velocity) [1]: no significant effect on swim behavior

Fc1ccc(Cn2c(CN3CCCC3)nc3ccccc32)cc1 [Compound 7]
Ki [5, 16]: 345 nM | Ki [8]: 1 nM | Ki [6, 14]: 15 nM | Ki [7]: 46 nM

Clc1ccc(Cn2c(CN3CCCC3)cc3ccccc32)cc1 [Compound 11, 1-[(4-Chlorophenyl)methyl]-2-[(pyrrolidin-1-yl)methyl]-1H-indole]
Ki [5, 13]: 248 nM | Ki [8, 15]: 6.4 nM | Ki [6, 17]: 631 nM | Ki [7, 15]: 134 nM

Nc1ccc(Cn2c(CN3CCCC3)nc3ccccc32)cc1 [Compound 14]
Ki [5, 16]: > 10000 nM | Ki [8]: 27 nM | Ki [6, 14]: > 10000 nM | specificity / selectivity for 5-HT2BR over other 5-HT2R subtypes [7]: specific binding for 5HT2BR; also recorded: selectivity for 5-HT2BR | Ki [7]: 606 nM | suppression of seizure-like swim behavior (change in mean velocity) [1]: no significant effect on the high-speed seizure-like behavior; also recorded: no significant effect on the swim behavior | suppression of seizure-like swim behavior (change in mean swim velocity) [1]: no significant effect on swim behavior

Clc1ccc(Cn2c(CN3CCCCC3)nc3ccccc32)cc1 [Compound 22]
Ki [5, 16]: 4580 nM | Ki [8]: 8.5 nM | Ki [6, 14]: 623 nM | Ki [7]: 306 nM

CCN(CC)Cc1nc2ccccc2n1Cc1ccc(Cl)cc1 [Compound 24, ({1-[(4-Chlorophenyl)methyl]-1H-1,3-benzodiazol-2-yl}methyl)diethylamine]
Ki [5, 13]: 1410 nM | Ki [8, 15]: 3.7 nM | Ki [6, 17]: 1260 nM | Ki [7, 15]: 115 nM

CN1CCN(Cc2nc3ccccc3n2Cc2ccc(Cl)cc2)CC1 [Compound 26]
Ki [5, 16]: 313 nM | Ki [8]: 1.2 nM | Ki [6, 14]: 316 nM | Ki [7]: 20 nM

Clc1ccc(Cn2c(CN3CCSC3)nc3ccccc32)cc1 [Compound 28]
Ki [5, 16]: 1080 nM | Ki [8]: 44 nM | Ki [6, 14]: > 10000 nM | Ki [7]: 464 nM

C[C@H](N)Cn1ccc2cc(F)c(Cl)cc21 [Ro 60-0175]
Ki [2, 10]: 4.3 nM | Ki [3]: 37.2 nM | Ki [4, 12]: 9.1 nM | effect on seizure-like swim behavior (change in mean velocity) [1]: consistently decreased mean velocity and was borderline effective after 90 mins of drug exposure

CN(C)C1CCc2cc(O)c(O)cc2C1 (stereo not shown) [TL-99]
Ki [2, 10]: 2040 nM | Ki [3, 11]: 2340 nM | Ki [4, 12]: 2290 nM | effect on seizure-like swim behavior (change in mean velocity) [1]: failed to elicit any behavioral effect

CN1CCc2cccc3c2[C@H]1Cc1ccc(O)c(O)c1-3 [apomorphine, reference compound]
effect on seizure-like swim behavior (change in mean velocity) [1]: significantly increased mean swim velocity

C=CCN1C[C@H](C(=O)N(CCCN(C)C)C(=O)NCC)C[C@@H]2c3cccc4[nH]cc(c34)C[C@H]21 [cabergoline]
Ki [2, 10]: 1.2 nM | Ki [3, 11]: 6.17 nM | Ki [4, 12]: 692 nM | effect on convulsive swim behavior ([1]; 250 μM): significantly reduced convulsive swim-behavior

Cl.Clc1cccc(N2CCNCC2)c1 [mCPP, 1-(3-Chlorophenyl)piperazine hydrochloride, reference compound]
effect on seizure-like swim behavior (change in mean velocity) [1]: biphasic response

CC(N)Cc1cccc(C(F)(F)F)c1 (stereo not shown) [norfenfluramine]
Ki ([2]; read-out: binding affinity (Ki) 5-HT2B / 5-HT2BR; known drugs and commercial compounds; cited from earlier work): 18 nM | Ki [3]: 194 nM | Ki ([4]; read-out: binding affinity (Ki) 5-HT2C / 5-HT2CR; known drugs and commercial compounds; cited from earlier work): 306 nM | effect on seizure-like swim behavior (change in mean velocity) [1]: suppressed convulsive swim behaviors in a concentration-dependent manner
